Consider one molecule from ChEMBL document CHEMBL1770148, “Dual function inhibitors of relevance to chronic obstructive pulmonary disease” (Bioorg Med Chem Lett, 2011).

The target in assay [1] is T1, Neutrophil elastase (Homo sapiens) (UniProt P08246).
T1 sequence (whole entry): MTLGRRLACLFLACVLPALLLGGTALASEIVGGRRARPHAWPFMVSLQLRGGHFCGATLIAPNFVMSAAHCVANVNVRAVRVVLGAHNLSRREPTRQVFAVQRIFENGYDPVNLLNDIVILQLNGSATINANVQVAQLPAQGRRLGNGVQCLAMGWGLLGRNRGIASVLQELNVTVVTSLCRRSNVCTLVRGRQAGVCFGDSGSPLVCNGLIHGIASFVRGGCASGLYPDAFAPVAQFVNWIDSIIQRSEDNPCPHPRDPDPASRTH
Description: Inhibition of human neutrophil elastase assessed as remaining activity using MeOSuc-AAPV-pNA substrate at 10.5 uM. The note with it: TDE = time-dependent effect.

Assay [2] addresses T2, Caspase-1 (Homo sapiens) (UniProt P29466).
T2 sequence (whole entry): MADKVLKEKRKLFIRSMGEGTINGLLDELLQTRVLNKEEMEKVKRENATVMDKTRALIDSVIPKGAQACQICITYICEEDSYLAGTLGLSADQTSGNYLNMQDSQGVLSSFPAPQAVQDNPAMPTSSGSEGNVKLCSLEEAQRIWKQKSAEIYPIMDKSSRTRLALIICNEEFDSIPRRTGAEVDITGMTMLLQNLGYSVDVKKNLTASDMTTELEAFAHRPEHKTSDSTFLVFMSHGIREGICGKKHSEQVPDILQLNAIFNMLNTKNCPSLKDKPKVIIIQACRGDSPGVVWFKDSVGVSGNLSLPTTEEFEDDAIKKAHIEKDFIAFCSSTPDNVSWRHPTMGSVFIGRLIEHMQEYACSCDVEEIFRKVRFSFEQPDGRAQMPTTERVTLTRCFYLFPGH
Description: Inhibition of caspase 1 by Z-Asp-CH2DCB released from compound using […] substrate after 2 mins in presence of human neutrophil elastase.

Assay [3] addresses T2, Caspase-1 (Homo sapiens). As to the kind of experiment: Inhibition of caspase 1 using […] substrate.
Assay [4] deals with T3, Myeloblastin (Homo sapiens) (UniProt P24158).
T3 sequence (whole entry): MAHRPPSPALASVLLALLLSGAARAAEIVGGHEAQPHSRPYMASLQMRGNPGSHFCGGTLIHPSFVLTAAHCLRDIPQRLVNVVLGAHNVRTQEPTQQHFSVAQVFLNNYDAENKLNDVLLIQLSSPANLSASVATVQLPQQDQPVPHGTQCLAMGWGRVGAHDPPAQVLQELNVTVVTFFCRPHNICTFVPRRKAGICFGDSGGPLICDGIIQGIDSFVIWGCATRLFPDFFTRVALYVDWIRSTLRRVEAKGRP
As to the kind of experiment: Inhibition of proteinase 3 after 30 mins.

Molecules are shown by their SMILES. Calls of active or inactive are those of the source. The rule behind the calls is not given here.

Consider `CCC[C@H]1C(=O)N(COC(=O)C[C@H](NC(=O)OCc2ccccc2)C(=O)COC(=O)c2c(Cl)cccc2Cl)S(=O)(=O)N1C`, for which the inhibition entry in assay [1] was “tde”. Also, on Caspase-1 (Homo sapiens) [2], the inhibition result was “Active”. Besides, the inhibition result (at Caspase-1 (Homo sapiens) [3]; in assay [4]) was “inactive” each time.
